From US12227501B2, “3-amino-2-[2-(acylamino)pyridin-4-yl]-1,5,6,7-tetrahydro-4h-pyrrolo[3,2-c]pyridin-4-one as CSNK1 inhibitors” (Bayer Aktiengesellschaft, priority 2019, dated 2025)

Key:
Assay type in all cases: biochemical
[1] = target: human CSNK1D (Homo sapiens (Human), UniProt P48730); assay: CSNK1D Assay (ADP-Glo, 1 μM ATP); conditions: read-out: CSNK1D IC50 [mol/l] (median)
Description: CSNK1 D-inhibitory activity of compounds of the present invention in presence of 1 μM adenosine-tri-phosphate (ATP) was quantified employing the CSNK1D assay as described in the following paragraphs. In essence, the enzyme activity is measured by quantification of the adenosine-di-phosphate (ADP), which is generated as a co-product of the enzyme reaction, via the “ADP-Glo™ Kinase Assay” kit from the company Promega. This detection system works as follows: In a first step the ATP not consumed in the kinase reaction is quantitatively converted to cAMP employing an adenylate cyclase (“ADP-Glo-reagent”), then the adenylate cyclase is stopped and the ADP generated in the kinase reaction converted to ATP which generates in a luciferase-based reaction a glow-luminescence signal (“Kinase Detection Reagent”). Recombinant fusion protein of N-terminal Glutathion-S-Transferase (GST) and full-length human CSNK1D, expressed by baculovirus infected insect cells and purified via Glutathion affinity chromatography, was purchased from Life Technologies (product no. PV3665) and used as enzyme. As substrate for the kinase reaction the biotinylated peptide Btn-Ahx-[…] (C-terminus in amide form) was used which can be purchased e.g. from the company Biosyntan (Berlin-Buch, Germany).
For the assay 50 nl of a 100 fold concentrated solution of the test compound in DMSO was pipetted into a white 1536-well microtiter plate (Greiner Bio-One, Frickenhausen, Germany), 2 μL of a solution of CSNK1D in aqueous assay buffer [50 mM HEPES pH 7.5, 10% (v/v) glycerol, 10 mM MgCl2, 50 mM NaCl, 1 mM dithiothreitol, 0.01% (w/v) bovine serum albumin, 0.01% (v/v) Triton X-100] were added and the mixture was incubated for 15 min at 22° C. to allow pre-binding of the test compounds to the enzyme before the start of the kinase reaction. […] The concentration of CSNK1 D was adjusted depending of the activity of the enzyme lot and was chosen appropriate to have the assay in the linear range, a typical concentration is about 0.5 ng/μL. The reaction was stopped by the addition of 2.5 μL of “ADP-Glo-reagent” (1:1.5 fold diluted with water) and the resulting mixture was incubated at 22° C. for 1 h to convert the ATP not consumed in the kinase reaction completely […]. Subsequently 2.5 μL of the “kinase detection reagent” (1.2 fold more concentrated than recommended by the producer) were added, the resulting mixture was incubated at 22° C. for 1 h and then the luminescence measured with a suitable measurement instrument (e.g. Viewlux™ from Perkin-Elmer). The amount of emitted light was taken as a measure for the amount of ADP generated and thereby for the activity of the CSNK1D.

[2] = target: T1, human CSNK1A1 (Homo sapiens (Human), UniProt P48729); assay: CSNK1A1 Assay 2 (ADP-Glo, 1 μM ATP); conditions: substrate biotin-Ahx-KRRRAL-pS-VASLPGL, read-out: CSNK1A1 Assay 2 IC50 [mol/l] (median)
T1 sequence (P48729 whole entry): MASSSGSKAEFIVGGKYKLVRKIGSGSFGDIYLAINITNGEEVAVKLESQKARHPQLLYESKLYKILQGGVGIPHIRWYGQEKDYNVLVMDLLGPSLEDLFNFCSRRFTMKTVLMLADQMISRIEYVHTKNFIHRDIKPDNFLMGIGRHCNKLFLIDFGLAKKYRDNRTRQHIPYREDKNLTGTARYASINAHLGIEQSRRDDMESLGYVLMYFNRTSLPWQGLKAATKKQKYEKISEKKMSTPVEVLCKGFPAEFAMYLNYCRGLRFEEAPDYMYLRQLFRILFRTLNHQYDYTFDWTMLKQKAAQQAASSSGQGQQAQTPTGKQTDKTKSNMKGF
Description: CSNK1A1-inhibitory activity of compounds of the present invention in presence of 1 μM adenosine-tri-phosphate (ATP) was quantified employing the CSNK1A1 assay as described in the following paragraphs. In essence, the enzyme activity is measured by quantification of the adenosine-di-phosphate (ADP), which is generated as a co-product of the enzyme reaction, via the “ADP-Glo™ Kinase Assay” kit from the company Promega. This detection system works as follows: In a first step the ATP not consumed in the kinase reaction is quantitatively converted to cAMP employing an adenylate cyclase (“ADP-Glo-reagent”), then the adenylate cyclase is stopped and the ADP generated in the kinase reaction converted to ATP which generates in a luciferase-based reaction a glow-luminescence signal (“Kinase Detection Reagent”). Recombinant fusion protein of N-terminal Glutathion-S-Transferase (GST) and full-length human CSNK1A1, expressed by baculovirus infected insect cells and purified via Glutathion affinity chromatography, was purchased from Life Technologies (product no. PV4174) and used as enzyme. As substrate for the kinase reaction the biotinylated peptide biotin-Ahx-KRRRAL-pS-VASLPGL (C-terminus in amide form) was used which can be purchased e.g. from the company Biosyntan (Berlin-Buch, Germany).
For the assay 50 nl of a 100 fold concentrated solution of the test compound in DMSO was pipetted into a white 1536-well microtiter plate (Greiner Bio-One, Frickenhausen, Germany), 2 μL of a solution of CSNK1A1 in aqueous assay buffer [50 mM HEPES pH 7.5, 10% (v/v) glycerol, 10 mM MgCl2, 50 mM NaCl, 1 mM dithiothreitol, 0.01% (w/v) bovine serum albumin, 0.01% (v/v) Triton X-100] were added and the mixture was incubated for 15 min at 22° C. to allow pre-binding of the test compounds to the enzyme before the start of the kinase reaction. […] The concentration of CSNK1A1 was adjusted depending of the activity of the enzyme lot and was chosen appropriate to have the assay in the linear range, a typical concentrations are about 0.0375 ng/μL. The reaction was stopped by the addition of 2.5 μL of “ADP-Glo-reagent” (1:1.5 fold diluted with water) and the resulting mixture was incubated at 22° C. for 1 h to convert the ATP not consumed in the kinase reaction completely […]. Subsequently 2.5 μL of the “kinase detection reagent” (1.2 fold more concentrated than recommended by the producer) were added, the resulting mixture was incubated at 22° C. for 1 h and then the luminescence measured with a suitable measurement instrument (e.g. Viewlux™ from Perkin-Elmer). The amount of emitted light was taken as a measure for the amount of ADP generated and thereby for the activity of the CSNK1A1.

[3] = target: T1, human CSNK1A1; assay: CSNK1A1 High ATP Assay (ADP-Glo, 1 mM ATP); conditions: read-out: CSNK1A1 high ATP assay IC50 [mol/l] (median)
Description: CSNK1A1-inhibitory activity of compounds of the present invention in presence of 1 mM adenosine-tri-phosphate (ATP) was quantified employing the CSNK1A1-high-ATP-assay as described in the following paragraphs. In essence, the enzyme activity is measured by quantification of the adenosine-di-phosphate (ADP), which is generated as a co-product of the enzyme reaction, via the “ADP-Glo™ Kinase Assay” kit from the company Promega. This detection system works as follows: In a first step the ATP not consumed in the kinase reaction is quantitatively converted to cAMP employing an adenylate cyclase (“ADP-Glo-reagent”), then the adenylate cyclase is stopped and the ADP generated in the kinase reaction converted to ATP which generates in a luciferase-based reaction a glow-luminescence signal (“Kinase Detection Reagent”).
Recombinant fusion protein of N-terminal Glutathion-S-Transferase (GST) and full-length human CSNK1A1, expressed by baculovirus infected insect cells and purified via Glutathion affinity chromatography, was purchased from Life Technologies (product no. PV4174) and used as enzyme. As substrate for the kinase reaction the biotinylated peptide biotin-Ahx-KRRRAL-pS-VASLPGL (C-terminus in amide form) was used which can be purchased e.g. from the company Biosyntan (Berlin-Buch, Germany).
For the assay 50 nl of a 100 fold concentrated solution of the test compound in DMSO was pipetted into a white low volume 384-well microtiter plate (Greiner Bio-One, Frickenhausen, Germany), 2 μL of a solution of CSNK1A1 in aqueous assay buffer [50 mM HEPES pH 7.5, 10% (v/v) glycerol, 10 mM MgCl2, 50 mM NaCl, 1 mM dithiothreitol, 0.01% (w/v) bovine serum albumin, 0.01% (v/v) Triton X-100] were added and the mixture was incubated for 15 min at 22° C. to allow pre-binding of the test compounds to the enzyme before the start of the kinase reaction. […] The concentration of CSNK1A1 was adjusted depending of the activity of the enzyme lot and was chosen appropriate to have the assay in the linear range, a typical concentration is about 0.4 ng/μL. The reaction was stopped by the addition of 2.5 μL of “ADP-Glo-reagent” (1:1.5 fold diluted with water) and the resulting mixture was incubated at 22° C. for 1 h to convert the ATP not consumed in the kinase reaction completely […]. Subsequently 2.5 μL of the “kinase detection reagent” (1.2 fold more concentrated than recommended by the producer) were added, the resulting mixture was incubated at 22° C. for 1 h and then the luminescence measured with a suitable measurement instrument (e.g. Viewlux™ from Perkin-Elmer). The amount of emitted light was taken as a measure for the amount of ADP generated and thereby for the activity of the CSNK1A1.

[4] = target: wild-type Epidermal Growth Factor Receptor (EGFR) (Homo sapiens (Human), UniProt P00533); assay: WT-EGFR Kinase Assay (TR-FRET, 2 mM ATP); conditions: EGFR Wildtyp- 2 mM ATP IC50 [mol/l] (median)
Chain of wild-type Epidermal Growth Factor Receptor (EGFR) (P00533 669-1210): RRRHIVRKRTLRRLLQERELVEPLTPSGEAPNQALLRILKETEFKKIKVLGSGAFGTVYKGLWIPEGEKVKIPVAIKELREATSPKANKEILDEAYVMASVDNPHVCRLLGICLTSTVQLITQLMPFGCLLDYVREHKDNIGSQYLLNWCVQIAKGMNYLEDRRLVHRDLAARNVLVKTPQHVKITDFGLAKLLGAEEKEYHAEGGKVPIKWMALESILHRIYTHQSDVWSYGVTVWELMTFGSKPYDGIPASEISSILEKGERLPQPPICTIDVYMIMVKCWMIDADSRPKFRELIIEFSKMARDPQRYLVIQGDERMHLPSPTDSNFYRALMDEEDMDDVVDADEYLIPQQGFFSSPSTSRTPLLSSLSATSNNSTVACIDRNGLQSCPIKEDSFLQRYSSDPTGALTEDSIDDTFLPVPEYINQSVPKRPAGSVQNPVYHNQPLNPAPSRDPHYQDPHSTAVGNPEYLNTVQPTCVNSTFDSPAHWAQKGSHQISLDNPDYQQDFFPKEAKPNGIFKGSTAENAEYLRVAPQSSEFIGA

Chain of human CSNK1D (P48730 whole entry): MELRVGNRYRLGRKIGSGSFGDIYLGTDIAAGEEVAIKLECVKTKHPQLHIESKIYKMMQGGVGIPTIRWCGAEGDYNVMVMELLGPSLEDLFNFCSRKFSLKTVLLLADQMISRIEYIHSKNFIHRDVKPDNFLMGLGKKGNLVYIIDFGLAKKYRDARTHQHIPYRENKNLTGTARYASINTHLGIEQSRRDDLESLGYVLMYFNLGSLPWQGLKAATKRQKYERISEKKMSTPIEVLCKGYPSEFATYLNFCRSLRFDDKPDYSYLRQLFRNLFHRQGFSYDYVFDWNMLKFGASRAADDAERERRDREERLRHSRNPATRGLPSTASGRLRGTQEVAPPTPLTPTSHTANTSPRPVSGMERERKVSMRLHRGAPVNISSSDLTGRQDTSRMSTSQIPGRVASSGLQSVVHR

| Compound | IC50 [1] [nM] | IC50 [2] [nM] | IC50 [3] [nM] | IC50 [4] [nM] |
| --- | --- | --- | --- | --- |
| CN1C(=O)c2c([nH]c(-c3ccnc(NC(=O)C(CC(F)F)c4ccc(F)cc4)c3)c2Nc2ccccc2F)CC1(C)C (racemic) [Example 45, 4,4-difluoro-N-{4-[3-(2-fluoroanilino)-5,6,6-trimethyl-4-oxo-4,5,6,7-tetrahydro-1H-pyrrolo[3,2-c]pyridin-2-yl]pyridin-2-yl}-2-(4-fluorophenyl)butanamide] | 13.2 | 16.3 | 273 | > 20000 |
| CC1(C)Cc2[nH]c(-c3ccnc(NC(=O)C(CC(F)F)c4ccc(F)cc4)c3)c(Nc3ccccc3)c2C(=O)N1 (racemic) [Example 48, N-[4-(3-anilino-6,6-dimethyl-4-oxo-4,5,6,7-tetrahydro-1H-pyrrolo[3,2-c]pyridin-2-yl)pyridin-2-yl]-4,4-difluoro-2-(4-fluorophenyl)butanamide] | 13.4 | 7.69 | 37 | 14500 |
| O=C1NC2(CCC2)Cc2[nH]c(-c3ccnc(NC(=O)C(CC(F)F)c4ccc(F)cc4)c3)c(Nc3ccccc3)c21 (racemic) [Example 54, N-[4-(3′-anilino-4′-oxo-1′,4′,5′,7′-tetrahydrospiro[cyclobutane-1,6′-pyrrolo[3,2-c]pyridin]-2′-yl)pyridin-2-yl]-4,4-difluoro-2-(4-fluorophenyl)butanamide] | 5.5 | 4.62 | 14.6 | > 20000 |
| CN(C)CCCC(C(=O)Nc1cc(-c2[nH]c3c(c2Nc2ccccc2)C(=O)N(C)CC3)ccn1)c1ccccc1 (racemic) [Example 58, N-[4-(3-anilino-5-methyl-4-oxo-4,5,6,7-tetrahydro-1H-pyrrolo[3,2-c]pyridin-2-yl)pyridin-2-yl]-5-(dimethylamino)-2-phenylpentanamide] | 40.6 | 12.4 | 1200 | > 20000 |
| CN1CCc2[nH]c(-c3ccnc(NC(=O)C(CC(F)F)c4ccc(F)cc4)c3)c(Nc3ccccc3)c2C1=O (racemic) [Example 61, N-[4-(3-anilino-5-methyl-4-oxo-4,5,6,7-tetrahydro-1H-pyrrolo[3,2-c]pyridin-2-yl)pyridin-2-yl]-4,4-difluoro-2-(4-fluorophenyl)butanamide] | 7.68 | 5.11 | 21.9 | 8020 |
| CC(C(=O)Nc1cc(-c2[nH]c3c(c2Nc2ccccc2)C(=O)N(C)CC3)ccn1)c1ccncc1 (racemic) [Example 72, N-[4-(3-anilino-5-methyl-4-oxo-4,5,6,7-tetrahydro-1H-pyrrolo[3,2-c]pyridin-2-yl)pyridin-2-yl]-2-(pyridin-4-yl)propanamide] | 6.09 | 3.97 | 66.4 | 7590 |
| CCC(C(=O)Nc1cc(-c2[nH]c3c(c2Nc2ccccc2)C(=O)N(C)CC3)ccn1)c1ccc(F)cc1 (racemic) [Example 75, N-[4-(3-anilino-5-methyl-4-oxo-4,5,6,7-tetrahydro-1H-pyrrolo[3,2-c]pyridin-2-yl)pyridin-2-yl]-2-(4-fluorophenyl)butanamide] | 8.28 | 5.49 | 164 | > 20000 |
| CC(C(=O)Nc1cc(-c2[nH]c3c(c2Nc2ccccc2)C(=O)N(C)CC3)ccn1)c1ccc(Cl)cc1 (racemic) [Example 79, N-[4-(3-anilino-5-methyl-4-oxo-4,5,6,7-tetrahydro-1H-pyrrolo[3,2-c]pyridin-2-yl)pyridin-2-yl]-2-(4-chlorophenyl)propanamide] | 19.5 | 8.93 | 337 | > 20000 |
| CC1Cc2[nH]c(-c3ccnc(NC(=O)Cc4ccc(F)cc4)c3)c(Nc3ccccc3)c2C(=O)N1C (racemic) [Example 88, N-{4-[3-anilino-5,6-dimethyl-4-oxo-4,5,6,7-tetrahydro-1H-pyrrolo[3,2-c]pyridin-2-yl]pyridin-2-yl}-2-(4-fluorophenyl)acetamide] | 5.18 | 2.33 | 65.1 | 727 |
| CC1Cc2[nH]c(-c3ccnc(NC(=O)Cc4ccncc4)c3)c(Nc3ccccc3)c2C(=O)N1C (racemic) [Example 97, N-{4-[3-anilino-5,6-dimethyl-4-oxo-4,5,6,7-tetrahydro-1H-pyrrolo[3,2-c]pyridin-2-yl]pyridin-2-yl}-2-(pyridin-4-yl)acetamide] | 5.73 | 4.4 | 47 | 529 |
